Measurements reported in ChEMBL document CHEMBL1201862, “PubChem BioAssay data set” (2004).
Active and inactive are the calls of the source.

Experiments:
14-3-3 protein gamma = 14-3-3 protein gamma (Homo sapiens, UniProt P61981); test: modulators of 14-3-3 gamma client binding – dose response (AID 711); assay type: functional
[1] = test system: Streptococcus sp. 'group A'; test: Streptococcus pyogenes SK(-)GAS viability under kanamycin – luminescence, BacTiterGlo, confirmation, counter-screen for streptokinase expression inhibitor project, dose response (AID 1900); assay type: functional, organism-based
[2] = biological target: T1, Heat shock factor protein 1 (Mus musculus, UniProt P38532); test: decrease of HSF1-responsive luciferase luminescence – cell-based, NIH3T3, dose retest, confirmation (AID 2382); assay type: functional;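 also: NIH3T3 fibroblasts with HSF1-driven luciferase reporter stressed by proteasome inhibitor MG132; luminescence from HSF1-driven luciferase expression after 8 hours of MG132 stress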
T1 sequence (P38532 whole entry): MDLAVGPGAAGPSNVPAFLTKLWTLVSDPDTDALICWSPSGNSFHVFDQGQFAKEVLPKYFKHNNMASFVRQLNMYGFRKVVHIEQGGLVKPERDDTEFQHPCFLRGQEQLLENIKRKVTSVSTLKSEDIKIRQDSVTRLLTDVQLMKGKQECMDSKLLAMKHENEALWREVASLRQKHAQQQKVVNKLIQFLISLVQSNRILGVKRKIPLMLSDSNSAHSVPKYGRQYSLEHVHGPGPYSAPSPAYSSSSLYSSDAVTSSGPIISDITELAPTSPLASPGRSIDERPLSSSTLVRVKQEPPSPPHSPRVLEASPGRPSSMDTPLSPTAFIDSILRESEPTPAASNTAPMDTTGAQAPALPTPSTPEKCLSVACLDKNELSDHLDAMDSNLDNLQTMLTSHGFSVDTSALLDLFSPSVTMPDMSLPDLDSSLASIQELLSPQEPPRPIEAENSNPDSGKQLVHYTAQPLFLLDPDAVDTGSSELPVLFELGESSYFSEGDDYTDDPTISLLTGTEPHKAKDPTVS

Streptokinase A = biological target: T2, Streptokinase A (Streptococcus pyogenes serotype M1, UniProt P10520); test: viability-normalized secreted streptokinase activity reduction – plasminogen activation absorbance, OD405, dose response (AID 1914); assay type: functional, Streptococcus pyogenes M1 GAS;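 also: secreted streptokinase activity via plasminogen activation per viability signal from cell pellet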
T2 sequence (P10520 whole entry): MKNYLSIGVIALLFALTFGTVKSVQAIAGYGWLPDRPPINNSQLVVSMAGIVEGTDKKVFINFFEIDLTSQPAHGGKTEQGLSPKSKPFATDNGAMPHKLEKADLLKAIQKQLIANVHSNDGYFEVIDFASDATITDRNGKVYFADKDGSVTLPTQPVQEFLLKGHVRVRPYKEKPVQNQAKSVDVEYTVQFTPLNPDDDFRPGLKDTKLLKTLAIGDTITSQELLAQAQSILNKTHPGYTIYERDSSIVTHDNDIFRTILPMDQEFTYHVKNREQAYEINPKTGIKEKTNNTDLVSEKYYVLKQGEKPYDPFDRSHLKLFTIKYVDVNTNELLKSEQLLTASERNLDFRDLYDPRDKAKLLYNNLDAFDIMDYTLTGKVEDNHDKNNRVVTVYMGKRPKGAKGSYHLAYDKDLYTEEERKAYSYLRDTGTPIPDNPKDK

Streptococcus = test: GAS UMAA2166 growth inhibition – luminescence, BacTiterGlo, counter-screen for streptokinase expression inhibitor project, dose response (AID 1915); assay type: functional, organism-based;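 also: potency for reduction of bacterial viability or growth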
[3] = biological target: T3, Replicative DNA helicase DnaB (Mycobacterium tuberculosis, UniProt P9WMR3); test: DnaB intein splicing inhibitors, dose response, biochemical, cell-free fluorescence (AID 449749); assay type: functional
T3 sequence (P9WMR3 whole entry): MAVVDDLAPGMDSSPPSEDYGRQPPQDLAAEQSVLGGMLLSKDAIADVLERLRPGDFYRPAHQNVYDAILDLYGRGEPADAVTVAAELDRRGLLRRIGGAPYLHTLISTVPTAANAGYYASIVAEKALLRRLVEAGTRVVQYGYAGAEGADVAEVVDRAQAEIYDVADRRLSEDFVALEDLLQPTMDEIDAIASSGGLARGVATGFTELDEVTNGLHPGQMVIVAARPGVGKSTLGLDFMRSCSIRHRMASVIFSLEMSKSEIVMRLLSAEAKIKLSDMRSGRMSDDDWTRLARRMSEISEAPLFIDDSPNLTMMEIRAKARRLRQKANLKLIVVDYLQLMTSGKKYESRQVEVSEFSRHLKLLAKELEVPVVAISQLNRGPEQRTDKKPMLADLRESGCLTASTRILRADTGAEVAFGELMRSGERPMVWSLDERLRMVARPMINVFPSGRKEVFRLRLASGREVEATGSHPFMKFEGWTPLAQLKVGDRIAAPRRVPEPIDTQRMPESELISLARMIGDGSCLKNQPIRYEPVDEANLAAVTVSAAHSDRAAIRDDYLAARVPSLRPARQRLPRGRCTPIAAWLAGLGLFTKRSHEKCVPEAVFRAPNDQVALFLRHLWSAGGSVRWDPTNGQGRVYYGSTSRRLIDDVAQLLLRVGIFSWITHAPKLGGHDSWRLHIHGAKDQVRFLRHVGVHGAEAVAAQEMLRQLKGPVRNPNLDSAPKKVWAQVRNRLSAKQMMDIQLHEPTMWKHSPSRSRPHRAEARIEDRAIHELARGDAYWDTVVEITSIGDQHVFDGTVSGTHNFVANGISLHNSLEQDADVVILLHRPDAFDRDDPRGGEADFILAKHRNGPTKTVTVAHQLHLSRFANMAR

[4] = Luminescent dose response cell-based high throughput screening assay for inhibitors of the Janus kinase 2 mutant JAK2V617F. [Related pubchem assays: 1446 (Primary screen.), 1521 (Confirmation assay.), 1486 (Counter screen.)]; assay type: functional
Protein RecA = biological target: T4, Protein RecA (Mycobacterium tuberculosis, UniProt P9WHJ3); test: Fluorescence Cell-Free Homogeneous Dose Retest to Identify Inhibitors of RecA-Intein Splicing Activity. [Related pubchem assays (depositor defined):AID2097, AID2223, AID489010, AID492950]; assay type: functional
T4 sequence (P9WHJ3 whole entry): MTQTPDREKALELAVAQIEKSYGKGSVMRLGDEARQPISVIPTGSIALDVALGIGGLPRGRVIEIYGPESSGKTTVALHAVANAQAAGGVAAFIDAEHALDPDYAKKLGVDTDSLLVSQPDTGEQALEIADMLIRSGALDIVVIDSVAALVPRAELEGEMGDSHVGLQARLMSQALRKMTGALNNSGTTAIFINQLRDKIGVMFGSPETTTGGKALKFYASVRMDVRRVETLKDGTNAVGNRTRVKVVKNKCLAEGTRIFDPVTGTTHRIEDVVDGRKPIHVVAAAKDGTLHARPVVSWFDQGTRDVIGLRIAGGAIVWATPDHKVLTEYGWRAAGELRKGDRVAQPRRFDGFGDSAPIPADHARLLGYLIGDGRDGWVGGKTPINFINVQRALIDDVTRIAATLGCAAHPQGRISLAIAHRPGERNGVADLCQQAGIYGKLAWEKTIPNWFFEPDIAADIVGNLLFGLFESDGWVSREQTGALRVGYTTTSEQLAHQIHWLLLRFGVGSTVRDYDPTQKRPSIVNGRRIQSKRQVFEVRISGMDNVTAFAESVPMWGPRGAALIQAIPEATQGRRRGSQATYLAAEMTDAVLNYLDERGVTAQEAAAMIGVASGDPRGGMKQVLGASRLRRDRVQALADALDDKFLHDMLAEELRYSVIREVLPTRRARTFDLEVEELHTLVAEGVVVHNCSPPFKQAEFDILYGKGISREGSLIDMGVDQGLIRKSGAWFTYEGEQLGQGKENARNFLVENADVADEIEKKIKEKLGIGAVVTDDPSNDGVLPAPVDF

[5] = general mammalian cell viability loss – activator set, cherry-pick, cytotoxicity control for miR-122 modulator project, dose response (AID 720690); assay type: functional, cell-based;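 also: HEK293T human cells scored for general mammalian cytotoxicity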
[6] = biological target: 5-hydroxytryptamine receptor 1A (Homo sapiens, UniProt P08908); assay type: functional
Sequence of 5-hydroxytryptamine receptor 1A (P08908 whole entry): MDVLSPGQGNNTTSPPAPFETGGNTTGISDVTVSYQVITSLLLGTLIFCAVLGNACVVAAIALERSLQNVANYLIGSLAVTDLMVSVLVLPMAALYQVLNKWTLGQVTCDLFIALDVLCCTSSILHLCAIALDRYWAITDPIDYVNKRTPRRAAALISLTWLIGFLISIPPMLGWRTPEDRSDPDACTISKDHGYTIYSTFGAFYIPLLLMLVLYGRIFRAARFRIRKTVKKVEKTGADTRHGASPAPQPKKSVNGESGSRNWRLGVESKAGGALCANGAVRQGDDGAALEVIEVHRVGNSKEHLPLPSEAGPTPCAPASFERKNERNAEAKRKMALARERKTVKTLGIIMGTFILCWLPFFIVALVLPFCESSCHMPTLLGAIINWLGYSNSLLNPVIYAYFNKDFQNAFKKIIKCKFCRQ

[7] = general mammalian cell viability loss – inhibitor set, cherry-pick, set 2, cytotoxicity control for miR-122 modulator project, dose response (AID 720697); assay type: functional, cell-based
[8] = biological target: Dual specificity protein phosphatase 3 (Homo sapiens, UniProt P51452); test: VHR phosphatase inhibition, dose response, selectivity assay for STEP inhibitor project, biochemical (AID 602374); assay type: functional; details: read-out: IC50_Mean
Sequence of Dual specificity protein phosphatase 3 (P51452 whole entry): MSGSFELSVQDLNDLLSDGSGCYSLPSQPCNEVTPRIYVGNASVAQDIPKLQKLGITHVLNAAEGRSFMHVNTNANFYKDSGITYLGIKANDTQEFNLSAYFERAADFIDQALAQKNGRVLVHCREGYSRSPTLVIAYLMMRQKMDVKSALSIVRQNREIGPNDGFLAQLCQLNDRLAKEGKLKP

[9] = biological target: Tyrosine-protein phosphatase non-receptor type 11 (Homo sapiens, UniProt Q06124); test: PTPN11 enzyme inhibitors – biochemical, selectivity assay for STEP inhibitor project, dose response (AID 602367); assay type: functional; details: read-out: IC50_Mean
Sequence of Tyrosine-protein phosphatase non-receptor type 11 (Q06124 whole entry): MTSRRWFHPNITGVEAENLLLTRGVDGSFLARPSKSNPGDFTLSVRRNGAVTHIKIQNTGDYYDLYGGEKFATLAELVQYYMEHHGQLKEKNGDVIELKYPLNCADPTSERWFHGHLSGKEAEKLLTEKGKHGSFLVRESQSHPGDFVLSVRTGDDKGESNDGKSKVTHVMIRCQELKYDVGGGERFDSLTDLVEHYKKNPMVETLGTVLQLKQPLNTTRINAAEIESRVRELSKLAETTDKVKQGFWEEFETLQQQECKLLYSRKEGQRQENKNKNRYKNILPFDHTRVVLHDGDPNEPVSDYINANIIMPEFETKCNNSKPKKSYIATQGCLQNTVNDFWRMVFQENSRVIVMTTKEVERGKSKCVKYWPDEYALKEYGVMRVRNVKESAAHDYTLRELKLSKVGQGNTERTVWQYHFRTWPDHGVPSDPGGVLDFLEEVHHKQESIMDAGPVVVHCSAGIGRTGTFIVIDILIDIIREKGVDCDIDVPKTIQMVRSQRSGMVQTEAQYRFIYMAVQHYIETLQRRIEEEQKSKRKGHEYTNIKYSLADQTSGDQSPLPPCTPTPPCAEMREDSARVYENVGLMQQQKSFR

[10] = biological target: 26S proteasome non-ATPase regulatory subunit 14 (Homo sapiens, UniProt O00487); test: inhibition of proteasome subunit RPN11 – biochemical, fluorescence polarization, uHTS hits, confirmation (AID 602368); assay type: functional
Sequence of 26S proteasome non-ATPase regulatory subunit 14 (O00487 whole entry): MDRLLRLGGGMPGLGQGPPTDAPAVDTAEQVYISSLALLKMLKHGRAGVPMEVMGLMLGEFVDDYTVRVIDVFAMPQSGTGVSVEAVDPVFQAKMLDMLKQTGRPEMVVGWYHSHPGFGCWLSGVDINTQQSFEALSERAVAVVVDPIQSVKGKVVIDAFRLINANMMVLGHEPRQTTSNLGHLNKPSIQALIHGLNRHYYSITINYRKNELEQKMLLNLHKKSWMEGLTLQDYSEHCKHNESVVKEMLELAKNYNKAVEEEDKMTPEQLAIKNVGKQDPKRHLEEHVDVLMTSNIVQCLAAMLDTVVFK

[11] = biological target: T5, Tyrosine-protein phosphatase non-receptor type 22 (Homo sapiens, UniProt Q9Y2R2); test: lymphoid phosphatase LYP inhibitors – biochemical, selectivity assay for STEP inhibitor project, dose response (AID 624241); assay type: functional
T5 sequence (Q9Y2R2 whole entry): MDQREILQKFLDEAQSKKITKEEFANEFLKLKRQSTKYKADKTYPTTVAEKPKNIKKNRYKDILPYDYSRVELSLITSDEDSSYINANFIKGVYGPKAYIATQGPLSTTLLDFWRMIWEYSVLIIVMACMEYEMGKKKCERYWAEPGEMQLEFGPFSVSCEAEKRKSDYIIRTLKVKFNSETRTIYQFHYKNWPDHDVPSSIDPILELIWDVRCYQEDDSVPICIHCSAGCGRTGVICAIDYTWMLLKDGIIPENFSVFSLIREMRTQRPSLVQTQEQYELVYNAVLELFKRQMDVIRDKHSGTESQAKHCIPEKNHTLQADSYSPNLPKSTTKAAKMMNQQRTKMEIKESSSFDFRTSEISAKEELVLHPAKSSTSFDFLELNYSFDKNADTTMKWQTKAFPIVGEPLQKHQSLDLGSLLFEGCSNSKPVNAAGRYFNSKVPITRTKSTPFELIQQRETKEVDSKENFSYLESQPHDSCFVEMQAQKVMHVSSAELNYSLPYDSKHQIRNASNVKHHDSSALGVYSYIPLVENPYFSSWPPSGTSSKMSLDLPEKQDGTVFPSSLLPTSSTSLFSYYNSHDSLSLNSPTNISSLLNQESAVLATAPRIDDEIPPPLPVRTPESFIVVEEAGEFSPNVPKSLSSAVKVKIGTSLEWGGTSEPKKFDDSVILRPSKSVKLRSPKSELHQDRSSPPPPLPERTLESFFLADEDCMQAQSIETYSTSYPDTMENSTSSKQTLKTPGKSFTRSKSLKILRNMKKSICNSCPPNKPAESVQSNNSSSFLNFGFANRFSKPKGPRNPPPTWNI

[12] = biological target: Peroxisome proliferator-activated receptor gamma/Nuclear receptor coactivator 2 (Homo sapiens, UniProt P37231); test: (§1) TR-FRET dose response biochemical High Throughput Screening assay for agonists of the steroid receptor coactivator 2 (SRC-2) recruitment by the peroxisome proliferator-activated receptor gamma (PPAR gamma): non-selective agonists. [Related pubchem assays: 1297, 1032 ]; assay type: functional
Sequence of Peroxisome proliferator-activated receptor gamma/Nuclear receptor coactivator 2 (P37231 whole entry): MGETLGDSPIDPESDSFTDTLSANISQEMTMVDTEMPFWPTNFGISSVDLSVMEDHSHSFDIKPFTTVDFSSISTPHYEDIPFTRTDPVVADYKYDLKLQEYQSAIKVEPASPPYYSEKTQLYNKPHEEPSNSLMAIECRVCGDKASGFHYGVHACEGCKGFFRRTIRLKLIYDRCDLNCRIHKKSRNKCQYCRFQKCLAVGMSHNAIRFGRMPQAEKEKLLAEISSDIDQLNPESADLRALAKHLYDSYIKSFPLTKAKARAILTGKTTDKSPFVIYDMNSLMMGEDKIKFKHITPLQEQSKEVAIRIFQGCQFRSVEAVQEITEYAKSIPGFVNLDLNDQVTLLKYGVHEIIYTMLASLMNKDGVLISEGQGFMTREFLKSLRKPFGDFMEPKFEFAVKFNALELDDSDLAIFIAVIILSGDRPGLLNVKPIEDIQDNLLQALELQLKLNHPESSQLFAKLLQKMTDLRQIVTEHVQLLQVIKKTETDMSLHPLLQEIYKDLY
Sequence of Peroxisome proliferator-activated receptor gamma/Nuclear receptor coactivator 2 (Q15596 whole entry, further chain): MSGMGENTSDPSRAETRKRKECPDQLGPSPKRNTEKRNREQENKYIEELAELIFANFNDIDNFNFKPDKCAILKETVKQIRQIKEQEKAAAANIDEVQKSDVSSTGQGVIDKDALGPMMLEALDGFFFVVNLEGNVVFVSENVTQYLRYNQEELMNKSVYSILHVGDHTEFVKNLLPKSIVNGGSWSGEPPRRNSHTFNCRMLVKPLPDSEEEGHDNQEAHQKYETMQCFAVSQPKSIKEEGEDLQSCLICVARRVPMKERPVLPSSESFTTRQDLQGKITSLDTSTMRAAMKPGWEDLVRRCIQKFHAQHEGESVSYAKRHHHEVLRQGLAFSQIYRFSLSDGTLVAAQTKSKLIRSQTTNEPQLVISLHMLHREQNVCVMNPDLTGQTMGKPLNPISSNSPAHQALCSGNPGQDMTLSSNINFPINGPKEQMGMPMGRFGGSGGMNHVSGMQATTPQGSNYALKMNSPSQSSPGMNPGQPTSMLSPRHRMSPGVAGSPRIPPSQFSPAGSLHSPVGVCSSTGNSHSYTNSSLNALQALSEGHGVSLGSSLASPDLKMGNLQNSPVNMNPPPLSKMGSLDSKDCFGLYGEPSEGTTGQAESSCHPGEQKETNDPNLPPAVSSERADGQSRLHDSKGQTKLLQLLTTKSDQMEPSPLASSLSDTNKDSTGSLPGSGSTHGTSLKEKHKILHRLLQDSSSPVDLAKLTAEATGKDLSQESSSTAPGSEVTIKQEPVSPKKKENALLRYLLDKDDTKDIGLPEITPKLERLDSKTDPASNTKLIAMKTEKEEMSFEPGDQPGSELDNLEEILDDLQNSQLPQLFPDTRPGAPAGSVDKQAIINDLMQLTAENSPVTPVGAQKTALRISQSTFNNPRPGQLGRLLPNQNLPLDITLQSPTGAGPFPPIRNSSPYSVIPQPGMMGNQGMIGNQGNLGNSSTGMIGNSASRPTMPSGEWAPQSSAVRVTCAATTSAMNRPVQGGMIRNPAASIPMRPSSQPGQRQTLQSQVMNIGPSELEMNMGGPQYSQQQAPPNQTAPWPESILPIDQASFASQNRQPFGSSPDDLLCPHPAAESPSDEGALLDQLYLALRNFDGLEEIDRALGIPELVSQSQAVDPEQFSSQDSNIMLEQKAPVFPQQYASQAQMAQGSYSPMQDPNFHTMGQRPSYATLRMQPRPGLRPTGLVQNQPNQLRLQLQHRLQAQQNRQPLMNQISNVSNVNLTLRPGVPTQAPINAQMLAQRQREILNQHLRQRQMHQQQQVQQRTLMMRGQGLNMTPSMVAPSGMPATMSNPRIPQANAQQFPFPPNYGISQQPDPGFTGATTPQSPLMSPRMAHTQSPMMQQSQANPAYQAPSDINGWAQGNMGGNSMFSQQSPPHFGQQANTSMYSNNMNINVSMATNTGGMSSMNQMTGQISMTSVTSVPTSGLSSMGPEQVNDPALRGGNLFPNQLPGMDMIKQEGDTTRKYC

[13] = biological target: Peroxisome proliferator-activated receptor gamma/Nuclear receptor coactivator 3 (Homo sapiens, UniProt P37231); test: as §1, with “3 (SRC-3)” for “2 (SRC-2)”, “1301 (Confirmation screen.), 1048 (Primary screen.)]” for “1297, 1032 ]”; assay type: functional
[14] = biological target: 72 kDa type IV collagenase (Homo sapiens, UniProt P08253); test: Dose Response validation of uHTS RPN11 inhibitor hits using a MMP-2 Fluorescence assay.; assay type: functional
Sequence of 72 kDa type IV collagenase (P08253 whole entry): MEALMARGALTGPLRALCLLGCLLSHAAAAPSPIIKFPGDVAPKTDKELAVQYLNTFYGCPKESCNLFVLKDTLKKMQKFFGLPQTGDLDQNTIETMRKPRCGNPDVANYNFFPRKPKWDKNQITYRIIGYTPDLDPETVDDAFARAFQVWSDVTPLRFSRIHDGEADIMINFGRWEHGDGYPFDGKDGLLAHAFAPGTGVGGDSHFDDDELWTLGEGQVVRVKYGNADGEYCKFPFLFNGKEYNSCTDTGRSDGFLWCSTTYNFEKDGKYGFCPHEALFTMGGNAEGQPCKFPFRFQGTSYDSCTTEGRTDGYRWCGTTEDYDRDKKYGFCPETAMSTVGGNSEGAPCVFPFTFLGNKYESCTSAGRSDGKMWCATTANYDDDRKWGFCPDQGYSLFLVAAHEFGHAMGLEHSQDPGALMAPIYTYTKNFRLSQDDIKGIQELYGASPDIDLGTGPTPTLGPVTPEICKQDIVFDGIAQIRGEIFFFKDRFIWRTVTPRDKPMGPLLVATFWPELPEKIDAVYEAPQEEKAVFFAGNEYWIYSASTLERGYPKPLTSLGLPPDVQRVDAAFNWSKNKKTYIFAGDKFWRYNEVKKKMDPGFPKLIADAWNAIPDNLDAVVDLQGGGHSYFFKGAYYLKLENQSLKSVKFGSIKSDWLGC

[15] = biological target: Dual specificity protein phosphatase 6 (Rattus norvegicus, UniProt Q64346); test: inhibition of rat DUSP6 enzyme activity – biochemical, in vitro, primary screen (AID 425)
Sequence of Dual specificity protein phosphatase 6 (Q64346 whole entry, the tested form may be a part): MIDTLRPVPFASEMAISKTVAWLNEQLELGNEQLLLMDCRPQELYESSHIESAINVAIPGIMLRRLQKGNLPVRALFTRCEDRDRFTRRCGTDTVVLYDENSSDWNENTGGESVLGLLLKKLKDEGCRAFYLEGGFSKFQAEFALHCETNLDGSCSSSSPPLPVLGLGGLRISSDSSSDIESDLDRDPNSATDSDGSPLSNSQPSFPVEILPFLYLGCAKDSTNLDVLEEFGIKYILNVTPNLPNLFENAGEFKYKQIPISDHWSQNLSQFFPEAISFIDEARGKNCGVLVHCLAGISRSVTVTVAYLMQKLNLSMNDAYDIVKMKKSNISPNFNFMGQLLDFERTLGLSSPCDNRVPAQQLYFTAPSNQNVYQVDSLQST

[16] = biological target: T6, Carboxy-terminal domain RNA polymerase II polypeptide A small phosphatase 1 (Homo sapiens, UniProt Q9GZU7); test: CTDSP1 inhibitors, concentration-response, biochemical, absorbance readout, ultra-high-throughput screen actives (AID 540297); assay type: functional
T6 sequence (Q9GZU7 whole entry): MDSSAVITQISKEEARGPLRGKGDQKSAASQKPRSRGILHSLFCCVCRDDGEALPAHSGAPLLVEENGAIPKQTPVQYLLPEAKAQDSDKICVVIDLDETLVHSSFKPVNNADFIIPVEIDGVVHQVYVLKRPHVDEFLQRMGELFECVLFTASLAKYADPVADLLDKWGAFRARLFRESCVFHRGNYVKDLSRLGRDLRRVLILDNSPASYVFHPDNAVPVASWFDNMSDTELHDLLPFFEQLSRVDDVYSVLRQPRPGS

[17] = biological target: Peroxisome proliferator-activated receptor gamma/Nuclear receptor coactivator 1 (Homo sapiens, UniProt P37231); test: as §1, with “1 (SRC-1)” for “2 (SRC-2)”, “assays (depositor defined):AID1300, AID1808, AID504735, AID631]” for “assays: 1297, 1032 ]”; assay type: protein assay
Genome polyprotein = Genome polyprotein (Hepatitis C virus, UniProt Q2Q167); test: disruption of hepatitis C core self-association – biochemical, TR-FRET, dose response (AID 2159); set-up: species or system Hepacivirus hominis;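 also: blocks dimerization of HCV core protein measured by TR-FRET between tagged core106 pairs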
Sequence of Genome polyprotein (Q2Q167 whole entry): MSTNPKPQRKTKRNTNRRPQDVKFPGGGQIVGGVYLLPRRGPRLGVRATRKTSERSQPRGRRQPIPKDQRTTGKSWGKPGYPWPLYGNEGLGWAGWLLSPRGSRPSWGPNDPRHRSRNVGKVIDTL

Prothrombin = Prothrombin (Bos taurus, UniProt P00735); test: thrombin protease inhibitors – biochemical, fluorescence polarization, uHTS hits, dose response (AID 602369); assay type: functional
[18] = biological target: Tyrosine-protein phosphatase non-receptor type 5 (Homo sapiens, UniProt P54829); test: PTPN5 enzyme inhibition – biochemical, fluorescence intensity, uHTS hits, confirmation (AID 602372); assay type: functional; details: read-out: IC50_Mean

Sequence of 14-3-3 protein gamma (P61981 whole entry): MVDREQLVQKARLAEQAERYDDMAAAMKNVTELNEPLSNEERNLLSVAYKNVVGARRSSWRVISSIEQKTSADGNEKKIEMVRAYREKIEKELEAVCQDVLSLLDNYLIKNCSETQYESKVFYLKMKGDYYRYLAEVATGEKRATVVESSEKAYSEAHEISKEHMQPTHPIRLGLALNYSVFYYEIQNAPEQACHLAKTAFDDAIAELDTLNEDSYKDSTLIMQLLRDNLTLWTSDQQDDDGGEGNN

CN1C(=S)SC(N(O)C(=O)Nc2ccccc2)C1(C)C (centres undefined)
IC50 (14-3-3 protein gamma): > 50 µM (not active)

Cc1cccc(CS(=O)(=O)c2nnc([C@H](Cc3ccccc3)NC(=O)OC(C)(C)C)o2)c1
EC50 [1]: 8.25 µM (active) | EC50 [2]: 2.19 µM (active) | EC50 (Streptokinase A): 1.5 µM (active) | EC50 (Streptococcus): 10.2 µM (active) | AC50 [3]: 2.68 µM (active) | IC50 [4]: 870 nM (active) | EC50 (Protein RecA): 5.42 µM (active)

CCOC(=O)C1CCN(C(c2cccnc2)c2c(NC(=O)c3ccco3)sc(C)c2C)CC1 (centres undefined)
AC50 [5]: 29.4 µM (active) | EC50 [6]: > 50 µM (not active) | AC50 [7]: 1.05 µM (active)

Cc1cccc(Nc2nn3c(=O)c4ccccc4nc3s2)c1
IC50 [8]: 1.21 µM (active) | IC50 [9]: 1.71 µM (active) | IC50 [10]: 17.6 µM (active) | IC50 [11]: 96.2 µM (inactive) | EC50 [12]: 21.7 µM (not active) | EC50 [13]: > 79.4 µM (not active) | IC50 [14]: 5.79 µM (active) | IC50 [15]: > 10 µM (not active) | IC50 [16]: 3.16 µM (active) | EC50 [17]: 32.2 µM (inactive) | IC50 (Genome polyprotein): > 49.8 µM (not active) | IC50 (Prothrombin): > 100 µM (inactive) | IC50 [18]: 4.17 µM (active)
